# ChEMBL document CHEMBL1147766, “Structure-based design of novel groups for use in the P1 position of thrombin inhibitor scaffolds. Part 1: Weakly basic azoles” (Bioorg Med Chem Lett, 2006)
# What was measured:
# [1] = molecular target: T1, Prothrombin (Homo sapiens, UniProt P00734); assay: Binding affinity to thrombin
# [2] = molecular target: Trypsin (Homo sapiens, UniProt P07477+P07478+P35030); assay: Binding affinity to trypsin; format: protein assay
# [3] = Cmax in dog administered with 5 mg/kg, po; format: ADME, organism-based, Canis lupus familiaris; parameters: dose 5 mg/kg, route oral; details: in vivo
# [4] = molecular target: T1, Prothrombin; details: Plasma
# Description: Anticoagulant potency in human plasma
# [5] = Half life in dog administered with 4 mg/kg, po; format: ADME, organism-based, Canis lupus familiaris; parameters: dose 4 mg/kg, route oral; details: in vivo
# [6] = Cmax in dog administered with 4 mg/kg, po; format: ADME, organism-based, Canis lupus familiaris; parameters: dose 4 mg/kg, route oral; details: in vivo
smiles,measurement,setting,value
Cc1ccc(NS(=O)(=O)Cc2ccccc2)c(=O)n1CC(=O)NCCCc1cnc(N)s1,Ki,[1],0.45 µM
same,Ki,[2],124 µM
N[C@@H](C(=O)N1CCC[C@H]1C(=O)NCCc1c[nH]cn1)C(c1ccccc1)c1ccccc1,Ki,[1],0.2 µM
same,Ki,[2],2.3 µM
Cc1nc[nH]c1CNC(=O)Cn1c(C)cnc(NCCc2ccccn2)c1=O,Ki,[1],0.022 µM
Cc1cnc(NCCc2ccccc2)c(=O)n1CC(=O)NC[C@H]1CC[C@H](N)CC1,Ki,[1],0.0064 µM
N[C@@H](C(=O)N1CCC[C@H]1C(=O)NC/C=C/c1c[nH]cn1)C(c1ccccc1)c1ccccc1,Ki,[1],0.002 µM
same,Ki,[2],0.14 µM
Nc1ncc(/C=C/CNC(=O)[C@@H]2CCCN2C(=O)[C@H](N)C(c2ccccc2)c2ccccc2)s1,Ki,[1],0.03 µM
same,Ki,[2],178 µM
Cc1[nH]cnc1C#CCNC(=O)[C@@H]1CCCN1C(=O)[C@H](N)C(c1ccccc1)c1ccccc1,Ki,[1],0.006 µM
same,Ki,[2],7.2 µM
N[C@@H](C(=O)N1CCC[C@H]1C(=O)NCCCc1c[nH]cn1)C(c1ccccc1)c1ccccc1,Ki,[1],0.017 µM
same,Ki,[2],0.24 µM
N[C@@H](C(=O)N1CCC[C@H]1C(=O)NCC#Cc1c[nH]cn1)C(c1ccccc1)c1ccccc1,Ki,[1],0.013 µM
same,Ki,[2],6 µM
Cc1nc[nH]c1CNC(=O)Cn1c(C)ccc(NS(=O)(=O)Cc2ccccc2)c1=O,Ki,[1],0.008 µM
same,Ki,[2],43 µM
Cc1ccc(NS(=O)(=O)Cc2ccccc2)c(=O)n1CC(=O)NCc1cnc(N)s1,Ki,[2],> 1000 µM
Nc1ncc(CCCNC(=O)[C@@H]2CCCN2C(=O)[C@H](N)C(c2ccccc2)c2ccccc2)s1,Ki,[1],0.198 µM
same,Ki,[2],32 µM
Cc1ccc(NS(=O)(=O)Cc2ccccc2)c(=O)n1CC(=O)NC/C=C/c1cnc(N)s1,Ki,[1],1.8 µM
same,Ki,[2],> 1000 µM
Cc1nc(N)sc1CNC(=O)Cn1c(C)ccc(NS(=O)(=O)Cc2ccccc2)c1=O,Ki,[1],0.01 µM
same,Ki,[2],6.5 µM
Nc1ncc(CNC(=O)[C@@H]2CCCN2C(=O)[C@H](N)C(c2ccccc2)c2ccccc2)s1,Ki,[1],0.35 µM
same,Ki,[2],59 µM
Cc1[nH]cnc1CNC(=O)[C@@H]1CCCN1C(=O)[C@H](N)C(c1ccccc1)c1ccccc1,Ki,[1],0.065 µM
same,Ki,[2],9.6 µM
Cc1[nH]cnc1/C=C/CNC(=O)[C@@H]1CCCN1C(=O)[C@H](N)C(c1ccccc1)c1ccccc1,Ki,[1],0.001 µM
same,Cmax,[3],550 nM
same,Ki,[2],0.1 µM
same,2aPTT,[4],0.32 µM
Nc1ncc(CCNC(=O)[C@@H]2CCCN2C(=O)[C@H](N)C(c2ccccc2)c2ccccc2)s1,Ki,[1],0.193 µM
same,Ki,[2],59 µM
Cc1ccc(NS(=O)(=O)Cc2ccccc2)c(=O)n1CC(=O)NCc1c[nH]cn1,Ki,[1],0.17 µM
same,Ki,[2],314 µM
Cc1ccc(NS(=O)(=O)Cc2ccccc2)c(=O)n1CC(=O)NC/C=C/c1c[nH]cn1,Ki,[1],0.143 µM
same,Ki,[2],21 µM
Cc1ccc(NS(=O)(=O)Cc2ccccc2)c(=O)n1CC(=O)NCCCc1c[nH]cn1,Ki,[1],0.034 µM
same,Ki,[2],17 µM
Cc1nc[nH]c1CNC(=O)Cn1c(C)cnc(NCCc2ccccc2)c1=O,half-life,[5],2 h
same,Cmax,[6],1400 nM
same,Ki,[1],0.053 µM
N[C@@H](C(=O)N1CCC[C@H]1C(=O)NCc1c[nH]cn1)C(c1ccccc1)c1ccccc1,Ki,[1],0.38 µM
same,Ki,[2],36 µM
